These results are taken from paper PMC6384574, “Colistin Use in Patients with Chronic Kidney Disease: Are We Underdosing Patients?” (Molecules, 2019).

Positions of bridges follow the written chain, without caps; N, C: chain ends. Non-standard residues stand in square brackets, D forms with d. Residues, ends and D or L forms follow the SMILES beside them. *: point of attachment. X1 = CC[C@H](C)CCCCC(=O)*; Dab = NCC[C@H](N)C(=O)O

The nature of series [1]: Colistin plasma concentration at steady state (Css,avg) by HPLC in CMS-treated patients with CKD. In kind it is in vivo, human. How it is done: We conducted a prospective observational study in a cohort of patients with CKD and infections caused by extensively drug-resistant P. aeruginosa treated with intravenous CMS for at least 48 h. The study was carried out at Hospital del Mar, a tertiary care university hospital in Barcelona (Spain), from January 2010 to August 2018. The study was approved by the local ethics committee (Comité Ètic d’Investigació Clínica del Parc de Salut Mar. Approval number 2011/4501/I). Exclusion criteria were age <18 years, pregnancy, and breast-feeding during the study period. A pharmacy-generated alarm system was used to identify patients under CMS treatment. […]
The dosage regimen and dose adjustments were determined by the treating physician. […]
Blood samples were obtained just before the next dose on day 3–4 of the treatment. […] Concentrations of CMS and formed colistin in plasma were measured using a validated high-performance liquid chromatography (HPLC) method. The limit of quantification of the HPLC methods for colistin and CMS in plasma were 0.20 and 0.50 mg/L, respectively. As the plasma concentration-time profiles of formed colistin are almost flat, measured colistin concentrations were regarded as Css,avg. The percentage of patients achieving the therapeutic target defined as a Css,avg of 2 mg/L was also analyzed. […] We calculated the expected Css based on the formula of Nation et al..

The conditions of series [2]: cited from earlier work. The source says:
Colistin use has reemerged in recent years for the treatment of multidrug-resistant Gram-negative infections, which has prompted the performance of a large number of clinical and PK studies of its use in the last decade. However, there is still little pharmacological information in patients at high risk of under- or overdosing, such as those with CKD. […] CMS, the pro-drug, is renally eliminated by glomerular filtration and active tubular secretion. Previ ... || Recent toxicodynamic studies performed in the general population indicate that the risk of nephrotoxicity in patients receiving CMS increases with plasma colistin concentration exceeding 2.5 mg/L [13, 15]. This point, together with the lack of information on the minimum inhibitory concentrations (MIC) at the beginning of CMS treatment, have led to consideration of an average Css,avg of 2 mg/L as a target when initiating therapy. The median Css,avg in this study was 0.9 mg/L, which is far below the above-mentioned recommended 2 mg/L [11] but is also below those reported in previous ... || Blood samples were obtained just before the next dose on day 3–4 of the treatment. […] Concentrations of CMS and formed colistin in plasma were measured using a validated high-performance liquid chromatography (HPLC) method. The limit of quantification of the HPLC methods for colistin and CMS in plasma were 0.20 and 0.50 mg/L, respectively. As the plasma concentration-time profiles of formed colistin are almost flat, measured colistin concentrations were regarded as Cs ...

Series [3] is described as follows: Worsened renal function (nephrotoxicity) at end of treatment, RIFLE criteria. Particulars: multivariate logistic regression.
Description: (§2) Patient data included demographic information, SOFA score [31], Charlson comorbidity index [32], CMS treatment (indication, daily and total cumulative dose measured in millions of IU and treatment duration). GFR at baseline and at EOT was calculated using the abbreviated Modification of Diet in Renal Disease equation (MDRD-4) [33]. WRF was defined as a decrease in GFR ≥25% and was classified according to the Risk, Injury, Failure, Loss of kidney function, and End-stage kidney disease (RIFLE) criteria [34]. Patients with WRF were followed up until GFR recovery or until hospital discharge. Information was collected on the concomitant use of other potential nephrotoxic drugs such as aminoglycosides, vancomycin, angiotensin II receptor blockers, angiotensin-converting enzyme (ACE) inhibitors, loop diuretics, intravenous dye, amphotericin B and non-steroidal anti-inflammatory drugs (NSAIDs), as well as the need for vasopressor drugs or discontinuation of CMS due to nephrotoxicity. Combination therapy with other antibiotics with potential activity or synergy with colistin was assessed.
(§3) Dichotomous data were compared using a χ^2 or Fisher’s exact test. Normally distributed continuous data are expressed as means and standard deviations (SD), and were compared using the t-test. Otherwise, values are presented as means with interquartile range (IQR) and were compared using the Mann-Whitney U-test. The baseline and clinical characteristics of patients receiving different CMS doses were compared using the ANOVA or Kruskal-Wallis test. Multivariate analysis of risk factors for colistin-associated nephrotoxicity was conducted using logistic regression. Univariate analyses were performed separately for each of the risk factor variables to ascertain the odds ratio (OR) and 95% confidence interval (CI). All clinically important covariates and those with p < 0.3 in the univariate analyses were included in the multivariate analysis.
Series [4] concerns extensively drug-resistant Pseudomonas aeruginosa. Put plainly: Clinical cure / clinical failure in CKD patients treated with intravenous CMS. In kind it is in vivo. How it is done:
We conducted a prospective observational study in a cohort of patients with CKD and infections caused by extensively drug-resistant P. aeruginosa treated with intravenous CMS for at least 48 h. The study was carried out at Hospital del Mar, a tertiary care university hospital in Barcelona (Spain), from January 2010 to August 2018. The study was approved by the local ethics committee (Comité Ètic d’Investigació Clínica del Parc de Salut Mar. Approval number 2011/4501/I). Exclusion criteria were age <18 years, pregnancy, and breast-feeding during the study period. A pharmacy-generated alarm system was used to identify patients under CMS treatment. The study investigators performed the assessment from the first day of the treatment and informed consent was obtained from all participants or their legal representatives.
(§1) CKD was defined as kidney damage or GFR <60 mL/min/1.73 m^2 for 3 months or more, irrespective of cause. Infections were defined according to the Centers for Disease Control and Prevention. Clinical failure was defined as a lack of improvement in patients or in at least one of the initial symptoms, worsening or death. Clinical cure was defined as either the absence of symptoms or as a consistent improvement in the signs and symptoms of the infection. Thirty-day all-cause mortality was considered as death from any cause during the 30 days following EOT. Combined antibiotic treatment consisted of CMS plus meropenem or CMS plus amikacin.
The dosage regimen and dose adjustments were determined by the treating physician. Since this study was performed over more than 8 years, colistin daily doses varied during this time. From 2010 to 2014, dose adjustments were made according to the package insert’s recommended dosing as follows: GFR ≥76 mL/min/1.73 m^2, 4–6 million IU daily in three doses; GFR 40–75 mL/min/1.73 m^2, 2–3 million IU daily in two doses; GFR 25–40 mL/min/1.73 m^2, 1.5–2 million IU daily divided in one or two doses and; GFR <25 mL/min/1.73 m^2, 0.6–1 million IU daily every 36 h. In 2014, a new protocol based on our previous experience was implemented in our center and CMS was adjusted as follows: GFR ≥90 mL/min/1.73 m^2, 9 million IU daily in three doses; GFR 50–89 mL/min/1.73 m^2, 3 million IU every 12 h, GFR 10–49 mL/min/1.73 m^2, 3 million IU per day; GFR ≤10 mL/min/1.73 m^2, 2 million IU/day. However, the final dose was chosen by the treating physician. CMS (colistimethate formulation for intravenous use, GES Genéricos Españoles®, Las Rozas, Spain was diluted in 100 mL of physiological saline before intravenous administration over 30 min. Each vial contained 1 million IU of CMS (equivalent to 80 mg CMS).

For series [5] the following is noted: in vivo.
Description: as §2, §3
For series [6] the following is noted: human, in vivo; cited from earlier work. On the procedure:
Recent toxicodynamic studies performed in the general population indicate that the risk of nephrotoxicity in patients receiving CMS increases with plasma colistin concentration exceeding 2.5 mg/L [13, 15]. This point, together with the lack of information on the minimum inhibitory concentrations (MIC) at the beginning of CMS treatment, have led to consideration of an average Css,avg of 2 mg/L as a target when initiating therapy. […] Rates of nephrotoxicity in patients treated with CMS range from 20% to 60% according to recent studies using standardized criteria to evaluate nephrotoxicity. Even though WRF was reversible in more than 50% of patients, the diagnosis and management of this complication during CMS treatment is a challenge in daily clinical practice, since nephrotoxicity is potentially related to worse clinical outcomes. In two previous studies by our group, the pre ...

A short description of series [7]: 30-day all-cause mortality in CMS-treated CKD patients. In kind it is in vivo, human. On the procedure:
as §1

The conditions of series [8]: human, in vivo, iv.
[9] abbreviates: Garonzik et al. pharmacokinetic study, ref [8].
[10] abbreviates: diagnosis SSTI (skin and soft tissue infection).
Where [11] appears, read: diagnosis UTI (urinary tract infection).

On to `CC[C@H](C)CCCCC(=O)N[C@@H](CCN)C(=O)N[C@H](C(=O)N[C@@H](CCN)C(=O)N[C@H]1CCNC(=O)[C@H]([C@@H](C)O)NC(=O)[C@H](CCN)NC(=O)[C@H](CCN)NC(=O)[C@H](CC(C)C)NC(=O)[C@@H](CC(C)C)NC(=O)[C@H](CCN)NC1=O)[C@@H](C)O` [colistin] (X1-[Dab]T[Dab][Dab][Dab][dL]L[Dab][Dab]T; lactam 4-C), for which the “Css,avg (colistin plasma concentration at steady-state), median (interquartile range)” value in series [1] (all CKD patients n = 59, iv CMS, median daily dose 3 million IU, blood just before next dose on day 3–4, plasma, HPLC) is 900 ng/mL. In series [1] (patients with clinical cure (n = 43), unit printed in Table 1 only), the “Css,avg” value came out at 800 ng/mL. In addition, in series [2] (setting [9]), the “Colistin Css,avg, median” value is 2360 ng/mL and the “Colistin Css,avg, range” value was 480 to 9380 ng/mL. In series [2] (IQR 0.11–5.99, ref [7],[13]), the “Colistin plasma concentration in previous studies in the general population” value is recorded as 1.06. For the same compound, in series [2] (assumed for steady state on day 3–4, ref [10]), the Half-life result was “approximately 14 h”. In addition, the “OR of Css as independent risk factor for colistin-associated nephrotoxicity at the end of treatment” value in series [3] (95% CI 1.02–10.1, p = 0.047) is recorded as 3.21.
Regarding colistimethate sodium [CMS], the “Clinical cure, patients” value in series [4] (43 of 59 CKD patients, iv CMS, XDR P. aeruginosa infections) worked out at 72.9%. In series [4] (setting [10]), the “Patients with clinical cure” value is 3 (60) n (%) and the “Patients with clinical failure” value is given as 2 (40) n (%). In series [4] (setting [11]), the “Patients with clinical cure” value is reported as 15 (93.6) n (%) and the “Patients with clinical failure” value is listed as 1 (6.25) n (%). Besides, in series [4] (diagnosis bacteremia), the “Patients with clinical cure” value is recorded as 3 (100) n (%) and the “Patients with clinical failure” value is recorded as 0 (0) n (%). For the same compound, in series [4] (diagnosis others), the “Patients with clinical cure” value was 4 (57.1) n (%) and the “Patients with clinical failure” value is 3 (42.9) n (%). For the same compound, in series [4] (diagnosis pneumonia), the “Patients with clinical cure” value is reported as 7 (50) n (%) and the “Patients with clinical failure” value is 7 (50) n (%). Moreover, in series [4] (diagnosis tracheobronchitis), the “Patients with clinical cure” value is reported as 11 (78.6) n (%) and the “Patients with clinical failure” value is given as 3 (21.43) n (%). In addition, in series [5], the “GFR at EOT, median (interquartile range)” value is 30.1 (6.51–81.4) mL/min/1.73 m^2; the “Incidence of WRF at EOT” value is given as 33.9%; the “Recovery of baseline renal function” value is 10 (52.6) n (%); the “WRF (worsened renal function) at the end of treatment” value is 20 (33.9) n (%). Also, in series [5], the “WRF at EOT, RIFLE class F (Failure)” value is 3 (15) n (%); the “WRF at EOT, RIFLE class I (Injury)” value is 10 (50) n (%); the “WRF at EOT, RIFLE class R (Risk)” value was 3 (15) n (%); the “WRF reversible, patients” value worked out at 52.6%. In addition, the “CMS dose renally excreted in the urine” value in series [2] (during the first 24 h after dosing, ref [21]) is “about 60%”. The “Urinary excretion of CMS after intravenous administration” value in series [2] (patients, within the first 6 h, ref [22]) is “rapid urinary excretion”. Further, the “Rates of nephrotoxicity in patients treated with CMS” value in series [6] is listed as 20-60%. Besides, the 30-day all-cause mortality in series [7] (patients with clinical failure (n = 16)) was 13 (81.3) n (%). Further, in series [7] (patients without nephrotoxicity at EOT (n = 39)), the 30-day all-cause mortality is reported as 10 (25.64) n (%). Further, the “OR of DOT (days of CMS treatment) as risk factor for colistin-associated nephrotoxicity at the end of treatment” value in series [3] (p = 0.069) stood at 1.11. Moreover, the Neurotoxicity result in series [8] is recorded as “none of the patients in this cohort developed neurotoxicity”.
